US20210255193A1, “LYSINE REACTIVE PROBES AND USES THEREOF” (The Scripps Research Institute, priority 2017, published 2021)

Experiments:
Assay in all cases: competitive isoTOP-ABPP
Type in all cases: binding
FAM136A Protein FAM136A = biological target: T1, FAM136A Protein FAM136A (Homo sapiens, UniProt Q96C01); details: for isoTOP-ABPP ratio (R) at liganded lysine Q96C01_K99: sol, 231
T1 construct: isoTOP-ABPP experiments performed in cell lysates (in vitro); endogenous in cells; host or cells: soluble proteome of human cancer cell lines (MDA-MB-231; Ramos and Jurkat also prepared)
In short: (§1)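 Cell lysate (0.5 ml) was pre-treated with fragment, 50 μM for activated esters or 100 μM for guanidinylating agents, versus DMSO, then labeled 1 h at ambient temperature with 0.1 mM STP-alkyne. Light/heavy TEV tags attached by CuAAC; R = DMSO/compound MS1 peak-area ratio, median per lysine.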

[1] = biological target: T2, FH Fumarate hydratase, mitochondrial (Homo sapiens, UniProt P07954); details: for isoTOP-ABPP ratio (R) at liganded lysine P07954_K311: sol, 231
T2 construct: isoTOP-ABPP experiments performed in cell lysates (in vitro); endogenous in cells; host or cells: MDA-MB-231 soluble lysate
T2 sequence (P07954 45-510): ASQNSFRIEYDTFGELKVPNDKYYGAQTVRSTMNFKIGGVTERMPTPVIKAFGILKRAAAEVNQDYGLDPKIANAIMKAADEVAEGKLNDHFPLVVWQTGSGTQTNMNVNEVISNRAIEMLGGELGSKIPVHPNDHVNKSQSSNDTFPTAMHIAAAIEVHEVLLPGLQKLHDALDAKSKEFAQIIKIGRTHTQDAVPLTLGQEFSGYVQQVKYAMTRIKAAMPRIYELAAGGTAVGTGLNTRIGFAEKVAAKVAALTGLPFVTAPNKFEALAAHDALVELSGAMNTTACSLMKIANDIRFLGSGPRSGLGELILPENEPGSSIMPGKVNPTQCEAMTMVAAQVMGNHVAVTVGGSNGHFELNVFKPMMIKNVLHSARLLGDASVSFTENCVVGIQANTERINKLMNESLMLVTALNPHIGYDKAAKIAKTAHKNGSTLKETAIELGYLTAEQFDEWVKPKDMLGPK
In short: as §1

SPAST Spastin = biological target: T3, SPAST Spastin (Homo sapiens, UniProt Q9UBP0); details: for isoTOP-ABPP ratio (R) at liganded lysine Q9UBP0_K180: sol, 231
T3 construct: endogenous in cells; host or cells: MDA-MB-231 lysate
T3 sequence (Q9UBP0 1-616): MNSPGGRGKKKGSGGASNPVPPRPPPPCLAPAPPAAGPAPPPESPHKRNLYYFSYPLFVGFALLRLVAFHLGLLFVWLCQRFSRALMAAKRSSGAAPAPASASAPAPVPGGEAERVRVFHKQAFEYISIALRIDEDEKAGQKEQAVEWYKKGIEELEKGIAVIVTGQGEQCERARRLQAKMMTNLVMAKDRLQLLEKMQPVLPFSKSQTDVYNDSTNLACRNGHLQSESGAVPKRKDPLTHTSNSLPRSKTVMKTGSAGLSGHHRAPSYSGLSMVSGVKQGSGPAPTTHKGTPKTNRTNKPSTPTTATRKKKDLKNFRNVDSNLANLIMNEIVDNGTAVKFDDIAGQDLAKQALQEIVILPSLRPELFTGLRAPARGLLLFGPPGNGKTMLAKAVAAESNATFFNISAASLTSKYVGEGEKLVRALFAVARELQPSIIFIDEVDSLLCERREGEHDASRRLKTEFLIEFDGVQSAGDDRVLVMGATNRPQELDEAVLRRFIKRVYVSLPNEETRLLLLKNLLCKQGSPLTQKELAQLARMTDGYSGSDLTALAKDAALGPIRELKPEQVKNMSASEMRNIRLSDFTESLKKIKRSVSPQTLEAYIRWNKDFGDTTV
In short: as §1

[2] = biological target: T4, TSTA3 GDP-L-fucose synthase (Homo sapiens, UniProt Q13630); details: for isoTOP-ABPP ratio (R) at liganded lysine Q13630_K108: sol, 231
T4 construct: isoTOP-ABPP experiments performed in cell lysates (in vitro); endogenous in cells; host or cells: soluble proteome of human cancer cell lines (MDA-MB-231, Ramos, Jurkat)
In short: as §1

T4 sequence (Q13630 whole entry): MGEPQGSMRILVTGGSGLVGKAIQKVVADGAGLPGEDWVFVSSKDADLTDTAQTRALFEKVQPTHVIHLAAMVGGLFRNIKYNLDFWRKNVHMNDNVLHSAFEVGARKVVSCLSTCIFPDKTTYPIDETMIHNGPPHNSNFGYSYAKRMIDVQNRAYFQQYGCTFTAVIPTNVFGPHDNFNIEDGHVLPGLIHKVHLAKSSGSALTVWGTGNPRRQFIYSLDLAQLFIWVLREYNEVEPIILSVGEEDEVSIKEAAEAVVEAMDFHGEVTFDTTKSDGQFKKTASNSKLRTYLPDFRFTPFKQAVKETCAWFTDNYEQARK
T1 sequence (Q96C01 whole entry): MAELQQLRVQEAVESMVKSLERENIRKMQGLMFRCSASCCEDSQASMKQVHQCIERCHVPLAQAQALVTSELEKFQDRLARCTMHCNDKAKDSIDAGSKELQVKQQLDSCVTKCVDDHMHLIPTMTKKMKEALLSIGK

COc1cc(CCC(=O)Oc2ccc([N+](=O)[O-])cc2[N+](=O)[O-])cc(OC)c1OC [fragment 33, 2,4-Dinitrophenyl 3-(3,4,5-trimethoxyphenyl)propanoate]
isoTOP-ABPP reactivity ratio at lysine Q96C01_K99 (FAM136A Protein FAM136A; 50 uM, 231 sol, in vitro): 0.7 | isoTOP-ABPP reactivity ratio at lysine P07954_K311 ([1]; 50 uM, 231 sol, in vitro): 2.2 | isoTOP-ABPP reactivity ratio at lysine Q9UBP0_K180 (SPAST Spastin; 50 uM, 231 sol, in vitro): 0.7 | isoTOP-ABPP reactivity ratio at lysine Q13630_K108 ([2]; 50 uM, 231 sol, in vitro): 1.2

O=C(Oc1ccc([N+](=O)[O-])cc1[N+](=O)[O-])c1ccc(-c2ccccc2)cc1 [fragment 37, 2,4-Dinitrophenyl [1,1′-biphenyl]-4-carboxylate]
isoTOP-ABPP ratio (R) at liganded lysine Q96C01_K99 (FAM136A Protein FAM136A; 50 uM, in vitro): 1.0 | isoTOP-ABPP ratio (R) at liganded lysine P07954_K311 ([1]; 50 uM, in vitro): 1.2 | isoTOP-ABPP ratio (R) at liganded lysine Q9UBP0_K180 (SPAST Spastin; 50 uM, in vitro): 1.1 | isoTOP-ABPP ratio (R) at liganded lysine Q13630_K108 ([2]; 50 uM, in vitro): 2.9

CC(C)(C)OC(=O)NCCCC(=O)Oc1ccc([N+](=O)[O-])cc1[N+](=O)[O-] [fragment 41, 2,4-Dinitrophenyl 4-((tert-butoxycarbonyl)amino)butanoate]
isoTOP-ABPP ratio (R) at liganded lysine Q96C01_K99 (FAM136A Protein FAM136A; 50 uM, in vitro): 0.9 | isoTOP-ABPP ratio (R) at liganded lysine P07954_K311 ([1]; 50 uM, in vitro): 1.0 | isoTOP-ABPP ratio (R) at liganded lysine Q9UBP0_K180 (SPAST Spastin; 50 uM, in vitro): 1.4 | isoTOP-ABPP ratio (R) at liganded lysine Q13630_K108 ([2]; 50 uM, in vitro): 1.3

O=C(CCc1ccc2c(c1)OCO2)Oc1ccc([N+](=O)[O-])cc1[N+](=O)[O-] [fragment 45, 2,4-Dinitrophenyl 3-(benzo[d][1,3]dioxol-5-yl)propanoate]
isoTOP-ABPP ratio, lysine Q96C01_K99 (FAM136A Protein FAM136A; 50 uM_231_sol_in vitro): 1.0 | isoTOP-ABPP ratio, lysine P07954_K311 ([1]; 50 uM_231_sol_in vitro): 1.8 | isoTOP-ABPP ratio, lysine Q9UBP0_K180 (SPAST Spastin; 50 uM_231_sol_in vitro): 1.7 | isoTOP-ABPP ratio, lysine Q13630_K108 ([2]; 50 uM_231_sol_in vitro): 20.0
